From PubChem BioAssay AID1996 come the findings set out here.

≈ marks a conversion by molar mass, not a printed value.

For this data set the following is noted: buffer; pH 7.4; 200.0 µM.
Regarding `N/C(=N\OC(=O)c1cccc(F)c1)c1ccccn1`, the kinetic solubility was 37.4 µg/mL (≈ 144 µM).
Take `Cc1ccc(C(=O)NCCOc2ccc(Cl)cc2)cc1`: the solubility (kinetic) amounted to 3.4 µg/mL (≈ 11.7 µM).
For `COc1ccc2[nH]c(=O)c(CNc3cc(C)ccc3C)cc2c1` the value was 1.8 µg/mL (≈ 5.84 µM).
The result for `CN(C(=O)c1ccc(Oc2ccc([N+](=O)[O-])cc2)cc1)C1CCCCC1` reads 1 µg/mL (≈ 2.82 µM).
The result for `CC1(C)CC(=O)C=C(Nc2ccc(Cl)c(Br)c2)C1` reads 8.5 µg/mL (≈ 25.9 µM); that for `O=[N+]([O-])c1ccc(-c2cn(-c3ccccc3F)c(=S)[nH]2)cc1`, 0.6 µg/mL (≈ 1.9 µM); that for `CCC1(C)CC(=O)N(c2ccc(F)c(Cl)c2)C(=O)C1`, 14 µg/mL (≈ 49.3 µM).
With `CC(=O)c1cn(CC(=O)Nc2ccccc2F)c2ccccc12`, the kinetic solubility was 9.4 µg/mL (≈ 30.3 µM).
The result for `NC(=O)C1CC(=O)N(c2ccc(OCC(=O)NCc3ccccc3)cc2)C1` (stereo not given) reads more than 55.1 µg/mL; that for `COc1ccc(NC(=O)CCNC(=O)c2ccco2)c(OC)c1`, more than 47.7 µg/mL.
For `O=C(O)CCCC(=O)Nc1ccccc1Oc1ccccc1` the value was more than 44.9 µg/mL; for `CCCC1=C(C(=O)OCC)C(c2ccco2)C(C#N)=C(N)O1` (stereo not given), 30.3 µg/mL (≈ 100 µM); for `Cc1ccc(NC(=O)c2oc3ccccc3c2COC(C)C)cc1S(=O)(=O)N1CCOCC1`, 3.6 µg/mL (≈ 7.62 µM).
In turn, `O=C(COc1ccccc1Cl)NCCCNC(=O)c1cccnc1` showed a solubility (kinetic) of more than 52.2 µg/mL.
The result for `COc1ccc(-c2nc(C)c(C(C)=O)n2O)cc1[N+](=O)[O-]` reads 42.3 µg/mL (≈ 145 µM); that for `N/C(=N\OC(=O)CCCc1ccccc1)c1ccccc1`, 7.2 µg/mL (≈ 25.5 µM); that for `CCc1noc(C)c1C(=O)Nc1ccc(C#N)cc1`, more than 38.3 µg/mL.
`Cc1nc(Nc2nc3ccccc3o2)nc(C)c1C` had a solubility (kinetic) of 15.8 µg/mL (≈ 62.1 µM).
For `CC(=O)c1ccc(S(=O)(=O)N2CCC3(CC2)OCCO3)cc1` the value was more than 48.8 µg/mL; for `COc1ccc(CCn2c(C)cc(C(=O)COC(=O)c3cnccn3)c2C)cc1`, 37.3 µg/mL (≈ 94.8 µM); for `Cc1c(Cl)cccc1NC(=O)CCN1CCN(C)CC1`, more than 44.4 µg/mL.
In turn, `CC(C)(C)c1ccc(NC(=O)c2cc[n+]([O-])cc2)cc1` showed a solubility (kinetic) of 36.1 µg/mL (≈ 134 µM).
The result for `Cc1ccccc1Nc1nnc(SCC(=O)NCC2CCCO2)s1` (stereo not given) reads more than 54.7 µg/mL; that for `COCCSc1ccccc1C(=O)N1CCc2ccccc21`, 44.5 µg/mL (≈ 142 µM); that for `CC(=O)Cc1nsc(NC(=O)c2ccccc2Cl)n1`, more than 44.4 µg/mL.
`O=C(Nc1cc(S(=O)(=O)N2CCCCC2)ccc1Cl)C1COc2ccccc2O1` (stereo not given) registered a solubility (kinetic) of 5.4 µg/mL (≈ 12.4 µM).
The result for `COc1cnc(-c2ccccc2)nc1Oc1ccc(Cl)cc1C` reads less than 0.3 µg/mL; that for `O=C(Nc1cc(Cl)cc(Cl)c1)N1CCCC1`, 34.6 µg/mL (≈ 134 µM).
For the compound `O=C(CC(=O)Nc1cccnc1)Nc1cccnc1`, the solubility (kinetic) was more than 38.4 µg/mL.
In turn, `N#Cc1ccccc1COC(=O)c1ccc2c(c1)OCCO2` showed a solubility (kinetic) of 10.9 µg/mL (≈ 36.9 µM).
The result for `CC1CN(C(C)C(=O)NC(c2ccccc2)c2ccccc2)CC(C)O1` (stereo not given) reads more than 52.9 µg/mL.
Compound `CC(=O)Nc1ccc(C(=O)Nc2ccncc2)cc1` registered a solubility (kinetic) of 31.6 µg/mL (≈ 124 µM).
`COc1ccccc1OCc1ccc(C(=O)N2CCCCC2)o1` displayed a solubility (kinetic) of more than 47.3 µg/mL.
The result for `O=S(=O)(c1ccc(F)cc1)N1CC=C(c2ccccc2)CC1` reads 2.6 µg/mL (≈ 8.19 µM); that for `O=C(O)c1ccc(S(=O)(=O)NCc2ccc3c(c2)OCO3)cc1`, more than 50.3 µg/mL.
With `CC1([N+](=O)[O-])COC2(OC1)C(=O)Nc1ccccc12` (stereo not given), the kinetic solubility is more than 39.6 µg/mL.
Take `O=C(COC(=O)c1ccc(F)cc1)Nc1ccc2c(c1)OCO2`: the kinetic solubility worked out at 4.5 µg/mL (≈ 14.2 µM).
Take `O=C(Nc1cccc(Cl)c1)N1CCCCCC1`: the solubility (kinetic) was 5.1 µg/mL (≈ 20.2 µM).
The result for `Cc1cc(N2CCN(C)CC2)nc(-c2ccccc2O)n1` reads more than 42.7 µg/mL; that for `Cc1cc(OC(C)C(=O)Nc2ccncc2)ccc1Cl` (stereo not given), more than 43.6 µg/mL; that for `CC(C)(C)C(=O)O/N=C(\N)c1ccc([N+](=O)[O-])s1`, 8.2 µg/mL (≈ 30.2 µM).
Take `Cc1cccc(NC(=O)COC(=O)c2cccs2)c1C`: the kinetic solubility came to 1.8 µg/mL (≈ 6.22 µM).
As to `Cc1nc(C)c(C(=O)O)s1`, the solubility (kinetic) was more than 23.6 µg/mL.
The compound `CCOC(=O)c1ccccc1NC(=O)c1ccc2nc[nH]c2c1` came in with a solubility (kinetic) of 11.3 µg/mL (≈ 36.5 µM).
For `O=C(CSCc1ccc(Br)cc1)NCc1ccccn1` the value was more than 52.7 µg/mL; for `Cc1nsc2nc3c(F)c(F)c(F)c(F)c3cc12`, 4.4 µg/mL (≈ 16.2 µM).
In the case of `CCc1ccc2c(CN3CCOCC3)cc(=O)oc2c1`, the solubility (kinetic) was more than 41 µg/mL.
For `Cc1ccccc1NC(=O)C1C2CCCCC21` (stereo not given) the value was 3.4 µg/mL (≈ 14.8 µM).
The result for `COc1ccc(CNC(=O)C2(CC(=O)NC(C)(C)C)CCCC2)cc1` reads more than 52 µg/mL; that for `C=CCNC(=O)c1cc(-c2ccc3c(c2)OCO3)on1`, 1.5 µg/mL (≈ 5.51 µM); that for `Cc1ccccc1NC(=O)CSc1ccncc1`, 36 µg/mL (≈ 139 µM).
In turn, `COc1cc(NC(=O)C(=O)N2CCN(C)CC2)c(OC)cc1Cl` had a kinetic solubility of more than 51.3 µg/mL.
Turning to `C/C(=C/C#N)Nc1ccc(C)cc1`, the solubility (kinetic) was more than 25.8 µg/mL.
For `Clc1ccccc1-c1nc(-c2ccncc2)no1` the value was 7 µg/mL (≈ 27.2 µM).
For `CS(=O)(=O)N1CCC(C(=O)Nc2ccc(C(N)=O)cc2)CC1` the value was 34.7 µg/mL (≈ 107 µM).
Consider `COC(=O)c1ccc(C2C(C#N)=C(N)Oc3cc(N)ccc32)cc1` (stereo not given), for which the solubility (kinetic) was 11.2 µg/mL (≈ 34.9 µM). Compared with the last compound, the solubility kinetic is about 3.1-fold lower.
The result for `Cc1ccc(S(=O)(=O)Nc2ccsc2C#N)cc1` reads more than 41.8 µg/mL; that for `CC1CCCCN1C(=S)NCc1ccco1` (stereo not given), more than 35.8 µg/mL.
The result for `O=C(CCCCl)Nc1nc(-c2ccc3c(c2)OCCO3)cs1` reads 1.1 µg/mL (≈ 3.25 µM); that for `Cc1ccccc1-c1nnc(SCC(=O)N2CCCC2)o1`, more than 45.5 µg/mL.
Turning to `O=C(CCCN1C(=O)/C(=C/c2ccccc2OC(F)F)SC1=S)Nc1cccnc1`, the solubility (kinetic) was determined as 4.5 µg/mL (≈ 10 µM).
For `CC1=[N+](C)N(c2ccccc2)C(=O)C1N=C/C=C/c1ccccc1` (stereo not given) the value was more than 47.8 µg/mL.
The result for `CCOC(=O)CSc1nnc(-c2cccnc2)n1C` reads more than 41.7 µg/mL; that for `COC(=O)C(NC(C)=O)(Nc1cc(C)ccn1)C(F)(F)F` (stereo not given), 40.7 µg/mL (≈ 133 µM); that for `O=C(O)c1cccc2c3c([nH]c12)CCCC3`, more than 32.3 µg/mL.
The result for `COc1ccccc1N1CCN(c2cnccn2)CC1` reads more than 40.6 µg/mL; that for `O=C(OCC(=O)N1CCOCC1)c1ccccc1O`, 29.8 µg/mL (≈ 112 µM); that for `COc1ccc(N2CCN(C(=O)NC(=O)c3ccc(Cl)cc3)CC2)cc1`, 3.1 µg/mL (≈ 8.29 µM).
`Nc1cc(C(F)(F)F)cc([N+](=O)[O-])c1N`: the kinetic solubility was more than 33.2 µg/mL.
`CCn1c(SCc2ccccc2)nc2c1c(=O)[nH]c(=O)n2C` yielded a kinetic solubility of 39.3 µg/mL (≈ 124 µM).
Regarding `Cc1ccc(NC(=O)CNc2cc(S(=O)(=O)N3CCOCC3)ccc2N2CCOCC2)cc1S(=O)(=O)N(C)C`, the kinetic solubility came out at 5.3 µg/mL (≈ 9.11 µM).
For `COC(=O)c1cc(S(=O)(=O)N(C)C2CCCCC2)oc1C` the value was 37.5 µg/mL (≈ 119 µM); for `CC1Cc2ccccc2N1C(=O)Cn1cc([N+](=O)[O-])ccc1=O` (stereo not given), more than 47 µg/mL; for `Cc1csc2c(NCCCN3CCOCC3)ncnc12`, more than 43.9 µg/mL.
For `COc1ccc(F)cc1S(=O)(=O)Nc1ccncc1` the value was more than 42.3 µg/mL.
`Cc1ccn2c(NC3CCCC3)c(-c3ccccn3)nc2c1` registered a kinetic solubility of 30.6 µg/mL (≈ 105 µM).
The compound `CC1CCCC(NC(=O)COC(=O)CCC(=O)c2cccs2)C1C` (stereo not given) displayed a solubility (kinetic) of more than 52.7 µg/mL.
The result for `CC1CCN(C(=S)NC(=O)c2ccco2)CC1` reads more than 37.8 µg/mL; that for `C=CCc1cccc(CNc2ccc(Br)cc2)c1O`, 1.4 µg/mL (≈ 4.4 µM).
For `Cc1nn(CC(=O)c2ccc(Cl)s2)c(C)c1[N+](=O)[O-]` the value was more than 45 µg/mL; for `Cc1cccc(OCCCC(=O)NC2CCCCC2)c1`, 14.1 µg/mL (≈ 51.2 µM); for `O=C(COc1ccc2ccc(=O)oc2c1)Nc1cccnc1`, 14.2 µg/mL (≈ 47.9 µM).
In turn, `COc1ccc(OCC2CCNCC2)cc1.Cl` gave a solubility (kinetic) of 36.5 µg/mL.
`C[C@@H]1NC(=O)/C(=C\c2ccccc2Br)NC1=O`: the kinetic solubility stood at 13.1 µg/mL (≈ 44.4 µM).
The result for `Cc1cc(/C=C2/NC(=O)NC2=O)c(C)n1-c1ccncc1` reads more than 42.3 µg/mL.
For `Cc1cc(C)cc(NC(=O)c2ccc([N+](=O)[O-])o2)c1` the value was 8.3 µg/mL (≈ 31.9 µM); for `N#Cc1ccc(-c2nc3cc(Cl)ccc3c(=O)n2O)cc1`, 44 µg/mL (≈ 148 µM); for `NC(=O)c1c(NC(=O)c2ccc(F)cc2)sc2c1CCC2`, 0.7 µg/mL (≈ 2.3 µM).
For `CCOC(=O)c1sc(/N=C/c2c(O)ccc3ccccc23)cc1C` the value was 9.8 µg/mL (≈ 28.9 µM).
Compound `CC1=C(C(=O)OC(C)C)C(c2cccs2)NC(=O)N1` (stereo not given) came in with a solubility (kinetic) of 37.2 µg/mL (≈ 133 µM).
For `COCc1cc(=O)[nH]c(-c2csc(C)n2)n1` the value was more than 35.6 µg/mL; for `O=C(Cn1c(C(=O)OCCO)cc2ccccc21)c1ccccc1`, 6.8 µg/mL (≈ 21 µM).
On to `CC1CCCC(NC(=O)c2ccc(COc3ccccc3)o2)C1C` (stereo not given), for which the solubility (kinetic) is 2.2 µg/mL (≈ 6.72 µM). This solubility kinetic is about 3.1-fold lower than that of the compound before.
On to `NC(=O)c1cn(C2CCCCC2)c2ccccc2c1=O`, for which the solubility (kinetic) is more than 40.5 µg/mL.
Turning to `NNC(=O)c1ccc(N2CCCCCC2)c([N+](=O)[O-])c1`, the solubility (kinetic) was more than 41.7 µg/mL.
In turn, `O=C(Nc1cc(S(=O)(=O)N2CCOCC2)ccc1N1CCOCC1)c1c(F)cccc1Cl` showed a solubility (kinetic) of 2.2 µg/mL (≈ 4.55 µM).
As for `O=C(CCC(=O)c1ccccc1)Nc1ccccc1`, the kinetic solubility amounted to 22.5 µg/mL (≈ 88.8 µM).
For `Cc1ccccc1NC(=O)C(Cc1ccccc1)n1cccc1` (stereo not given) the value was 7.4 µg/mL (≈ 24.3 µM); for `CCOc1ccc(CC(=O)N2CCN=C2SC)cc1`, more than 41.8 µg/mL; for `Cc1csc(Nc2ccc(Cl)cc2)n1`, 10.5 µg/mL (≈ 46.7 µM).
For `COc1ccccc1CCNC(=O)C1(C)CC1(Cl)Cl` (stereo not given) the value was more than 45.3 µg/mL; for `O=C(CNC(=O)c1ccc2ccccc2c1)NCc1ccc(F)cc1`, 1.9 µg/mL (≈ 5.65 µM).
For `COc1cccc(OC)c1OC(=O)c1cnccn1` the value was less than 0.3 µg/mL.
For the compound `O=C(NCc1ccccc1Cl)[C@@H]1CCCN1S(=O)(=O)c1ccc(Cl)cc1`, the solubility (kinetic) was determined as 38.4 µg/mL (≈ 92.9 µM).
For `O=C(OC(C(=O)NCc1ccccc1)c1ccccc1)c1ccco1` (stereo not given) the value was 41.8 µg/mL (≈ 125 µM).

One may read the solubility (kinetic) as solubility judged after dilution from a stock solution rather than from solid.
